Measurements: patent US20090238760A1, “ANTISPERMATOGENIC, SPERMICIDAL AND/OR ANTIFUNGAL COMPOSITION AND METHODS OF USING THE SAME” (Research Triangle Institute, priority 2006, published 2009)
Like-named read-outs stand apart in the source and are kept apart here. Each block holds one molecule with its values, some of them ahead of it.

How the values were obtained:
[1] = molecular target: testes receptor (testis membranes); assay: Displacement of [125I]074(d) from rat testis membranes (Scatchard / displacement binding assay)
Method: • 1. […] Homogenize the tissue for 20 sec with a Polytron tissue homogenizer (probe no. PTA 10S, 12 mm) at a medium setting (4-6 on a rheostat scale of 10) or until a smooth suspension is obtained. • 4. Pour the homogenate into a chilled 50 ml, centrifuge tube, and centrifuge at 0-4° C. and 500×g ( 1540 rpm in an […]) for 10 min. • 5. Decant the supernatant into clean 10 ml, centrifuge tubes, using multiple tubes as necessary. • 6. Centrifuge the decanted supernatant at 0-4° C. and 17000×g ( 11900 rpm in a Sorvall SS-34 rotor) for 12 min. • 7. Decant and discard the supernatants. […] Perform a total protein assay on resuspended pellet. The […] assay measures the binding of a radiolabeled test compound, over a wide concentration range, to the membrane receptors in both the absence (total binding) and presence (non-specific binding) of non-radioactive compound. Calculation of the resulting assay data yields the Kd of the test compound. • 1. Label 1.2 mL polypropylene tubes in duplicate for each [^125I]074(d) standard total binding and non-specific binding (NSB) determination and place in 96-well matrix test tube racks. Label liquid scintillation vials for free radioactivity determination. • 2. Prepare dilutions of the [^125I]074(d) ranging in concentration from approximately 1 to 200 nM or other desired concentration range. Prepare cold drug at a concentration of at least 100 times the level of the highest level of radiolabeled standard (e.g. 20-40 µM) for NSB determination. • 3. Set up the assay as follows: • 4. […] Add 0.1 mL (200 μg) to each assay tube. Vortex to mix. • 5. Incubate assay at 25° C. for 2 hours while gently shaking at 30-35 rpm (e.g. Precision Scientific Reciprocal Shaker or equivalent). • 6. […] Near the end of the incubation period, place a blank wash plate in the cell harvester (model MPXR-96T, Brandel Scientific, Gaithersburg, Md.). Place cold wash buffer in the reservoir supplying the harvester. Prime the harvester with buffer. Replace the dummy filter plate with the pre-soaked plate. • 8. At the end of the incubation period, remove tubes from incubator. Place the harvester prongs into the tubes, and vacuum to deposit the reaction mixture onto the filter plate. Rinse the reaction tubes 3-4 times with cold buffer and vacuum through the filter plate. • 9. Remove the filter plate from the harvester and allow it to dry thoroughly, using a warm oven if desired. • 10. Seal the bottom of the plate. Insert the plate into the cocktail dispenser and add cocktail (Micro-Scint 20, Perkin Elmer LAS, Shelton, Conn.) to each well • 11. Seal the top of the plate. Allow the plate to sit at least one hour or overnight and then count. • 1. For each level of standard, determine the CP Ms of free (essentially equivalent to total radioactivity added), total bound, and non-specific bound (NSB) compound. • 2. Subtract the NSB CPMs from the corresponding total CP Ms for each standard level to determine specific bound for each standard level. • 3. Convert the free, specific bound and non-specific bound CPMs to a mass basis (e.g. pM) using the specific activity, counter efficiency for the isotope ( 70% for ^125I in a Packard Model 1900TR. Liquid Scintillation Analyzer) and assay dilution factor of the labeled material. • 4. For each standard level, divide the level of compound specifically bound by the corresponding free amount added. • 5. For […] analysis, perform a linear regression analysis where x=specific bound compound and y=ratio of corresponding specific bound/free compound added. • 6. The Kd=-1/slope of the line generated. • 7. For illustrative purposes, a binding isotherm graph can be generated where x=free compound and y=total bound, non-specific bound and specific bound compound. The displacement assay measures the ability of a test drug, over a wide concentration range, to compete with and displace a constant amount of a known radiolabeled drug bound to the testes receptor. Calculation of the resulting assay data yields the Ki of the test drug. • 1. […]

[2] = system: testes / spermatogenesis in Swiss (CD-1) mice; conditions: in words, Cook et al., cited from earlier work
[3] = system: testes / spermatogenesis in Swiss (CD-1) mice; assay: Spermatogenic Index test: testes weight and spermatogenic index after a single oral dose; assay type: in vivo, mouse; conditions: male CD-1 mice, mean ± SEM; for Spermatogenic Index: 72 h, scale 1 to 6, 5 to 6 normal, vehicle control 5.5 ± 0.16; for Testes Weight: killed 72 h later, vehicle control 204 ± 11.9
Method: The compounds of the invention were tested in mice for their effects on spermatogenesis three days after a single oral dose by the procedure described in Cook et al (J. Med. […] Compounds active in this test have been shown also to be anti-fertility compounds. Compounds were screened for antispermatogenic activity by dosing male mice on day 1 with a gavage dose of control vehicle, positive control (compound 1) or compound of the invention. At 72 h after dosing, animals were killed and the testes were excised, trimmed of fat, and weighed. One testis was examined histologically and rated for spermatogenic potential using the Spermatogenic Index [[…]. Noden, J. Cherry and […]. Reprod. […], 72, 277 (1984)], which is a semiquantitative estimate of the sperm producing ability of the testes. The index is based on histological appearance of the spermatogenic cells in the seminiferous tubules. A scale of 1 to 6 is used with 5 to 6 being the normal status. A second assessment was based on the weight of the testes. […] Compounds were given orally to 8-week old male CD-1 mice in a single dose. Seventy-two hours later the animals were killed and the testes weighed. One testis was subjected to histological analysis and scored according to the Spermatogenic Index (SI) of Fail (see Cook et ah, J. Med. […] RTI-4587-056(l), and a vehicle control group was also analyzed.

[4] = system: testes / spermatogenesis in rats; conditions: single oral dose of 30 mg/kg to rats, within 24 h; cited from earlier work
spermatogenesis = conditions: oral administration to animals; cited from earlier work
[5] = average Ki, 25° C., 2 hours, for 074(d) the Ki is a Kd
[6] = J. Med. Chem., 1997, 40, 2111-2112

Structure (SMILES): CCN1CCC2C(C1)c1cc(I)c(C)cc1C2c1ccc(C(=O)O)cc1 (stereo not drawn) [RTI-4587-074(d)]
Ki [1, 5]: ~0.027 µM
Ki ([1]; average Ki, 25° C., 2 hours, for 074(d) the Ki is a Kd, listed as 074(d)): 0.027 µM
in vivo activity (antispermatogenic) [2, 6]: much greater in vivo activity

Structure (SMILES): CCN1CC[C@H]2[C@H](c3ccc(C(=O)OC)cc3)c3cc(C)c(C#Cc4ccccc4)cc3[C@H]2C1 [RTI-4587-109, (4aS, 5R,9bS)-5-(4-Carbomethoxyphenyl)-2-ethyl-2,3,4,4a,5,9b-hexahydro-7-methyl-8-(2-phenylethynyl)-1H-indeno[1,2-c]pyridine]
Spermatogenic Index ([3]; single oral dose 20 mg/kg, n=5): 4.26 ± 0.12
Testes Weight ([3]; single oral dose 20 mg/kg, n=5): 168.1 ± 16.4 mg

Structure (SMILES): CCN1CCC2C(C1)c1ccc(C)cc1C2c1ccc(C)cc1 (stereo not drawn) [RTI-4587-002(l)]
Ki ([1]; as stated in the text, listed as -002(l)): 66 µM
Ki [1, 5]: 65.6 µM
in vivo activity (antispermatogenic) ([2]; J. Med. Chem., 1997, 40, 2111-2112, listed as -002(l)): bioinactive

Structure (SMILES): C#Cc1cc2c(cc1C)[C@@H](c1ccc(C(=O)OC)cc1)[C@@H]1CCN(CC)C[C@H]21 [RTI-4587-107, (4aS, 5R, 9bS)-5-(4-Carbomethoxyphenyl)-2-ethyl-8-ethynyl-2,3,4,4a,5,9b-hexahydro-7-methyl-1H-indeno[1,2-c]pyridine]
Spermatogenic Index ([3]; single oral dose 20 mg/kg, n=5): 1.56 ± 0.20
Testes Weight ([3]; single oral dose 20 mg/kg, n=5): 134.4 ± 7.0 mg

Structure (SMILES): CCN1CC[C@@H]2[C@@H](c3ccc(C)cc3)c3cc(C)ccc3[C@@H]2C1.Cl [Sandoz 20-438]
weights of the testes [4]: drastically reducing
inhibition of spermatogenesis (spermatogenesis): reversible inhibition of spermatogenesis

Structure (SMILES): CCN1CCC2C(C1)c1ccc(C)cc1C2c1ccc(C)cc1 (stereo not drawn) [RTI-4587-002(d)]
Ki ([1]; as stated in the text, listed as -002(d)): 6.1 µM
in vivo activity (antispermatogenic) ([2]; J. Med. Chem., 1997, 40, 2111-2112, listed as -002(d)): bioactive

The next lines start with results.

Ki [1, 5]: 0.32 µM
Structure (SMILES): CCN1CC[C@H]2[C@H](c3ccc(C(=O)OC)cc3)c3cc(C)c(I)cc3[C@H]2C1 [RTI-4587-073(l), (4aS, 5R, 9bS)-5-(4-Carbomethoxyphenyl)-2-ethyl-2,3,4,4a,5,9b-hexahydro-8-iodo-7-methyl-1H-indeno[1,2-c]pyridine]
Spermatogenic Index ([3]; single oral dose 1 mg/kg, n=5): 2.92 ± 0.15
Testes Weight ([3]; single oral dose 1 mg/kg, n=5): 144 ± 4.9 mg

Ki [1, 5]: 67.3 µM
Structure (SMILES): CCN1CC[C@@H]2[C@@H](c3ccc(C(=O)OC)cc3)c3cc(C)c(I)cc3[C@@H]2C1 [RTI-4587-073(d)]

Ki [1]: ~0.54 µM
Ki [1, 5]: 0.54 µM
Structure (SMILES): CCN1CCC2C(C1)c1ccc(C)cc1C2c1ccc(C(=O)O)cc1 (stereo not drawn) [RTI-4587-054(d)]

Ki [1, 5]: 2.7 µM
Structure (SMILES): CCN1CC[C@H]2[C@H](c3ccc(C(=O)OC)cc3)c3cc(C)ccc3[C@H]2C1 [RTI-4587-056(l)]
Spermatogenic Index ([3]; single oral dose 30 mg/kg, n=4): 3.69 ± 0.07
Testes Weight ([3]; single oral dose 30 mg/kg, n=4): 173 ± 8.8 mg

Ki [1]: ~330 µM
Ki [1, 5]: 329 µM
Structure (SMILES): CCN1CCC2C(C1)c1ccc(C)cc1C2c1ccc(C(=O)O)cc1 (stereo not drawn) [RTI-4587-054(l)]
in vivo activity (antispermatogenic) [2, 6]: inactive

Ki [1, 5]: 207 µM
Structure (SMILES): CCN1CCC2C(C1)c1ccc(C)cc1C2c1ccc(C(=O)OC)cc1 (stereo not drawn) [RTI-4587-056(d)]
